For test [1], the system named is HCC827 cells. Kind of test: Cell cycle distribution by flow cytometry, HCC827. The class given is cell-based. The conditions noted are these: HCC827, NGI-1 24 h, p<0.01. As to the method:
FIGS. 7A-7D illustrate EGFR kinase domain mutant cell lines growth inhibition and cell cycle arrest response to NGI-1. FIG. 7A illustrates MTT assays to determine the effects of NGI-1 on growth of H3255 cells. FIG. 7B illustrates MIT assays to determine the effects of NGI-1 on growth of HCC827 cells. EGFR kinase domain mutant cell lines H3255 and HCC827 cells were untreated or treated with 10 μM NGI-1 for 5 d. […] FIG. 7C illustrates cell cycle distribution of H3255 after 24 h NGI-1 treatment for 24 h determined by flow cytometry. FIG. 7D illustrates cell cycle distribution of HCC827 after 24 h NGI-1 treatment for 24 h determined by flow cytometry.
For the assessment of cell cycle distribution, 1×10^6 cells were collected, washed once with ice-cold PBS and fixed in ice-cold 70% ethanol overnight at −20° C. Thereafter, cells were washed twice with PBS and incubated for 30 min at room temperature in 200 μL of Guava Cell Cycle Reagent (Guava Technologies). Cytofluorometric acquisitions were performed on a LSRII cytometer (BD Biosciences). First-line analysis was performed with Flow Jo software, upon gating on the events characterized by normal forward and side scatter parameters and discrimination of doublets in a FSC-A vs. FSC-H bivariate plot. Approximately 30,000 cells were analyzed per experiment, and the mean value was obtained from 3 independent assays.
(Flow cytometry measures light scatter and fluorescence of single cells or particles in a stream.)

Test [2] concerns N-linked glycosylation. Kind of test: D54-ERLucT cell based luciferase assay for inhibition of N-linked glycosylation. An excerpt:
The HTS approach using the bioluminescent N-linked glycosylation reporter (CCR 2011) in D54-ERLucT and D54-LucT cells has been previously described (Bennett, et al., Transl Oncol 2013, 6, 382-391). Briefly, the primary cell-based screen detects site occupancy of NLG sequons using a modified luciferase protein translated into the ER. […] The methodology for the primary (D54-ERlucT), secondary (D54-LucT), and tertiary (luciferase inhibition) screens as well and toxicity assays with CelltitreGlo are deposited in Pubchem (AID 588693).
The primary screen was developed in the D54 glioma cell line using a modified P. pyralis luciferase gene (ER-LucT) that is ER translated and glycosylated at three N-linked glycosylation consensus sequences. Glycosylation of the reporter inactivates luciferase enzymatic activity providing a robust methodology to detect inhibition of this process. D54 cells expressing a non-ER translated luciferase (LucT) insensitive to inhibition of N-linked glycoysation were used as a secondary screen for false positives. The primary screen was performed in duplicate and values were normalized to the average of positive control wells (Tunicamycin) minus averaged neutral vehicle treated wells per run. Compounds with replicate activity greater than three standard deviations above the mean average of control wells were selected for further study. A subset of 1,845 compounds met this criterion, and were advanced to simultaneous retesting in both the primary screen and a secondary (false positive) cell-based screen. […] Compounds were further triaged from consideration by consulting the Pubchem bioassay database and deprioritizing compounds showing a promiscuity rate higher than 5% across assays or by removing PAINS scaffolds (Baell, et al., J Med Chem 2010, 53, 2719-2740). Remaining compounds were assessed by medicinal chemistry review to score synthetic tractability and known issues with instability, poor solubility, or toxicity. This analysis yielded 39 compounds that were tested in a cell-free assay to detect luciferase inhibitors (Auld, et al., Proc Natl Acad Sci USA 2010, 107, 4878-4883) and by western blot analysis to detect gel mobility changes of the luciferase reporter, consistent with inhibition of N-linked glycosylation. This approach identified one aminobenzamidosulfonamide compound that blocked N-linked glycosylation.
To better understand the connection between structure and activity, analogs were prepared and tested in the D54-ERLucT cell based assay for inhibition of N-linked glycosylation (FIG. 1B). The assay was used to estimate and compare AC40 values among analogs and to guide the design of improved compounds that inhibited N-linked glycosylation. This effort generated 36 unique compounds with modifications to the amine component of the sulfonamide functionality (red), the pyrrolidine moiety (blue) or the methylaminothiazole group (green). Generally, incorporation of larger sulfonamides (i.e., larger secondary amines appended to the sulphone) was not well tolerated, resulting in erosion of potency (7 analogs). However, steric interactions could be mitigated by the introduction of a hydrogen bond accepting oxygen in a larger cyclic amine. Thus, morpholine was determined to be an acceptable surrogate for the dimethylamine component of the sulfonamide (FIGS. 1A-1D). The pyrrolidine group (blue) was replaced with various alkyl, cycloalkyl, and amine groups (7 compounds). The aminothiazole moiety was derivatized most extensively of all three regions (green highlighted area, 22 analogs). […] Analogs with the highest potency in the luciferase assay were retested with western blot analysis to insure that measurements of luciferase activation corresponded to loss of N-linked glycosylation.

Test [3] has as its system A549 cells. In words: Cell cycle distribution by flow cytometry, A549. Type of test: cell-based. Particulars: A549, NGI-1 24 h. How it is done:
FIGS. 5A-5G illustrate NGI-1 induces G1 arrest and senescence in EGFR addicted tumor cells. FIG. 5A illustrates cell cycle distribution of PC9 cells after 24 h NGI-1 treatment for 24 h determined by flow cytometry. […] FIG. 5B illustrates cell cycle distribution of A549 cells after 24 h NGI-1 treatment for 24 h determined by flow cytometry. FIG. 5C illustrates western blot time course of cyclin D1 expression in PC9 and A549 cells after NGI-1 treatment. FIG. 5D illustrates quantitative real-time PCR analysis of PC9 and A549 cells. A time course of cyclin D1 expression levels relative to GAPDH is represented. […] FIG. 5F illustrates senescence of PC9 cells explored by: cell autofluorescence, measured by flow cytometry using a detector for PE/YFP; lipofuscin accumulation, detected by confocal laser scanning microscopy using an excitation laser of 405 nm with acquired signals from spectrums of yellow 575-620 nm; and morphology changes, enlarged vs. flattened. […] Significance was calculated using a T test (*p<0.05. **p<0.01). FIG. 5G illustrates senescence of A549 cells explored by: cell autofluorescence, measured by flow cytometry using a detector for PE/YFP; lipofuscin accumulation, detected by confocal laser scanning microscopy using an excitation laser of 405 nm with acquired signals from spectrums of yellow 575-620 nm; and morphology changes, enlarged vs. flattened. […]

Setting [4] is: D54-ERLucT cells, luciferase activation.

SMILES strings stand for the structures.

One may read the IC50 as the concentration needed to halve the response being measured. Take `Cc1cnc(NC(=O)c2cc(S(=O)(=O)N(C)C)ccc2N2CCCC2)s1` [NGI-1, 5-(N,N-Dimethylsulfamoyl)-N-(5-methylthiazol-2-yl)-2-(pyrrolidin-1-yl)benzamide]: the cell cycle distribution result in test [1] is given as “undergo G1 arrest”. Besides, in test [2] (setting [4]), the “NLG Inhibition ASSAY Potency Mean AC40” value came to 170 nM and the “NLG Inhibition max act, %” value is on record as 321.4%. The half-inhibitory concentration (IC50) in test [2] (luminescent activity, estimated, FIG. 1C, read-out: IC50 in intact D54 ER-LucT cells in culture) was 1060 nM. The cell cycle distribution result in test [3] was “did not significantly change the cell cycle distribution”.

These data come from patent US11219625B2, “Inhibitors of N-linked glycosylation and methods using same” (YALE UNIVERSITY, priority 2015, dated 2022).
